This is an account of results in publication PMC6560451, “Occurrence and Function of the Na^+-Translocating NADH:Quinone Oxidoreductase in Prevotella spp” (Microorganisms, 2019).

Structures are written as SMILES.

In the experiment the target is T1, NqrB and NqrC subunits of P. bryantii B14 (Segatella baroniae, UniProt D8DWB9+D8DWC0).
T1 sequence (D8DWC0 1-385): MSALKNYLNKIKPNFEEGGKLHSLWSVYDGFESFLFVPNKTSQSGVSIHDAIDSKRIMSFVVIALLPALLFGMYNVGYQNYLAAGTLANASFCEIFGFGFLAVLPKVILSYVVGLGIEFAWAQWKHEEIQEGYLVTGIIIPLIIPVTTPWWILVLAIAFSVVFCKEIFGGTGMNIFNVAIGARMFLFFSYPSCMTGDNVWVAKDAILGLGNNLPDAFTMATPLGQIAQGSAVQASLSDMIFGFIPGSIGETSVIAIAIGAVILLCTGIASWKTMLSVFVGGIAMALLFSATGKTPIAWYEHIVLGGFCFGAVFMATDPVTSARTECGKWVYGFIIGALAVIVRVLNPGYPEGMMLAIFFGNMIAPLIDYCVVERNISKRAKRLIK
T1 sequence (D8DWB9 1-210): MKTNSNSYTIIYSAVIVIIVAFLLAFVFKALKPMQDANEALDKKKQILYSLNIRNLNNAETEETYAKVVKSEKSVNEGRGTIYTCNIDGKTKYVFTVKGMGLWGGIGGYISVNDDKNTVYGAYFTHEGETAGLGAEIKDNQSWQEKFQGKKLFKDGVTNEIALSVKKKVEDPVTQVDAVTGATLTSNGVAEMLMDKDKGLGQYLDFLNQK
Nature of the experiment: in-gel fluorescence after SDS-PAGE (excitation […] nm). The class given is biochemical.

With `Cc1cc2nc3c(=O)[nH]c(=O)nc-3n(C[C@H](O)[C@H](O)[C@H](O)COP(=O)(O)O)c2cc1C` [flavin mononucleotide], the “in-gel fluorescence after SDS-PAGE (excitation 460 nm)” value is “verified by in-gel fluorescence detection of covalently bound FMN chromophores”.
